One assay concerns Hes5-GFP-positive cells. The experiment in a line: Neurosphere generation from FACS-sorted Hes5-GFP-positive cells. The class given is cell-based, mouse. On the procedure:
Brains from 8-12 weeks old male Hes5-GFP mice were removed and hippocampi were isolated as described earlier. A live cell suspension was prepared from the hippocampus using 0.1% papain, and the dead cells were labelled with propidium iodide (1 μg/ml). GFP-positive and -negative cells were then purified by fluorescence-activated cell sorting (FACS). Cells were sorted on a FACS Vantage (Becton Dickinson, Melbourne, Australia) with DIVA software. The […] was set relative to the basal fluorescence levels obtained from GFP-negative wild-type littermate controls and a conservative approach was used in selecting only high GFP-expressing cells. The cells were collected in basal medium and plated into 96-well tissue culture plates in medium containing EGF+bFGF with or without norepinephrine (10 μM).

Assay [1] deals with adult hippocampal precursors. Description: Adult hippocampal neurosphere culture. The class given is cell-based, mouse. How it is done: Animals were treated in accordance with the Australian Code of Practice for the Care and Use of Animals for Scientific Purposes and ethics approval was obtained for all experiments from the Animal Ethics Committee of the University of Queensland. 8-10 week old male C57/B16 mice were killed by cervical dislocation and their brains removed. Brains were bisected along the midline in the sagittal plane. The hippocampi were isolated from the overlying cortex and minced using a scalpel blade. Minced tissue was digested in 0.1% papain (Invitrogen, Melbourne, Australia) for 20 minutes at 37° C., after which an excess of NeuroCult NSC basal medium (Stem Cell Technologies, Vancouver, Canada) was added to halt the digestion. Tissue was then centrifuged at 100 rcf for 5 minutes, the resulting pellet was resuspended in 1 ml of complete neurosphere medium, and a single cell suspension was achieved by gentle trituration. The cells were filtered through a 40 μm cell sieve (BD Biosciences, Sydney, Australia) and resuspended in NeuroCult NSC basal medium containing NeuroCult proliferation supplements (Stem Cell Technologies), 2% bovine serum albumin (Invitrogen) and 2 μg/ml heparin (Sigma-Aldrich, Sydney, Australia). The growth factors added were 20 ng/ml EGF (receptor grade, BD Biosciences) and 10 ng/ml bFGF (recombinant bovine, Roche, Basel, Switzerland). The cells were then plated in a 96-well plate and cultured in complete neurosphere medium containing EGF and bFGF, in the presence or absence of 5-hydroxytryptamine hydrochloride (serotonin; 100 nM, 1 μM, 10 μM), L-(−)-noradrenaline (+)-bitartrate salt monohydrate (norepinephrine; 100 nM, 1 μM, 10 μM) or KCl (15 mM). The adrenergic receptor antagonists used were prazosin (100 nM), yohimbine (1 μM), propranolol (1 μM), CGP20712 (10 nM), ICI118,551 (10 nM) and SR59230A (10 nM). BRL37344 was used as a selective β3 adrenergic receptor agonist. All the compounds were purchased from Sigma-Aldrich. The number of primary neurospheres was counted on day 10-13 and expressed as a percentage relative to the control.

The next assay deals with hippocampal neurospheres. Description: Immunocytochemistry of neurospheres (multipotentiality). The class given is cell-based, mouse. On the procedure:
We next determined the multipotentiality of the cells present within the neurospheres generated in the presence and absence of norepinephrine (FIG. 2b, c, d).
Control or norepinephrine-stimulated neurospheres were plated onto poly-ornithine-coated cover slips or poly-D-lysine-coated BioCoat eight-well culture slides (BD Biosciences) in serum-free basal medium without any mitogens. The neurospheres were allowed to flatten and adhere for 4-6 days in a humidified, 5% CO2 incubator. They were then fixed with 4% paraformaldehyde in 0.1M phosphate buffered saline (PBS) at 4° C. for 40 min, and immunocytochemistry was performed as described previously 38 using antibodies to the neuronal marker βIII tubulin (1:2000; Promega, Madison, Wis.), the astrocytic marker GFAP (1:500; DakoCytomation, Carpinteria, Calif.) and the oligodendrocyte marker MBP (1:500; Millipore, Sydney, Australia). 4′,6′-diamidino-2-phenylindole (DAPI; 1:5000; Sigma-Aldrich) was used as a nuclear stain. Slides were mounted using fluoromount (DakoCytomation) and viewed on a Zeiss-Axio Imager microscope. Images were captured using a digital camera linked to a computer using Zeiss software.

Assay [2] deals with norepinephrine-stimulated large neurospheres. The experiment in a line: Hippocampal neurosphere passaging (self-renewal). The class given is cell-based, mouse. As to conditions: 10 μM; 15 out of 21. The text has this:
To ascertain whether the norepinephrine-stimulated large neurospheres indeed reflected the activation of stem cells, individual neurospheres were selected and subjected to long-term passaging to assess their self-renewal capacity.
As a first step primary, neurospheres were individually dissociated and replated into fresh media not containing norepinephrine. Primary neurospheres from the unstimulated hippocampus were also passaged as single spheres. Hippocampal neurosphere cultures were initiated by removing 150 μl of the medium from wells containing single neurospheres, treating with 100 μl 0.1% trypsin-EDTA for 2 minutes at room temperature, followed by washing with 100 μl trypsin inhibitor in HEM. The neurospheres were mechanically triturated until dissociated and replated in 24 well plates in 2 ml of complete medium. Neurospheres were passaged every 10 days by centrifuging the neurospheres, removing the medium and incubating in 1 ml of 0.1% trypsin-EDTA for 2 minutes at room temperature. After the addition of an equal volume of trypsin inhibitor, the neurospheres were centrifuged at 100 rcf for 5 minutes and the supernatant removed. Cells were mechanically triturated in 500 μl of complete medium and trypan blue staining was used to evaluate the number of cells, both viable and total number, on a haemocytometer. […]

The next assay relates to hippocampal precursors. Description: Slice-sphere assay (hippocampal organotypic slices, then neurosphere culture). The class given is cell-based, rat. The following applies: slices treated at 100 μM. On the procedure:
D-glucose (Sigma-Aldrich) was added to the medium to a final concentration of 5 mM. Four filters, each containing 6-7 hippocampal slices, were generated from a single animal. Plates were incubated at 37° C. in a humidified 5% CO2 incubator and the slices were cultured for 6 days. To assess the influence of specific compounds on hippocampal precursor proliferation in the slice culture, compounds were added to the complete medium at the doses described below. Two filters were treated with the compounds for each dose per experiment. On every alternate day half the medium was removed and replaced with fresh medium containing the compounds. Slices were treated with serotonin at 10 μM and 100 μM and norepinephrine at 1 μM, 10 μM and 100 μM. […] Propranolol (10 μM) was used to block β adrenergic receptors in the slices. On the 6th day of culture, the hippocampal slices from each treatment group were pooled and the tissue was minced using a scalpel blade. Minced tissue was then treated with 0.1% trypsin-EDTA (Invitrogen) for 5 minutes at 37° C. […] A single cell suspension was achieved by gentle trituration. The total number of viable cells in an aliquot was counted on a haemocytometer based on the exclusion of 0.08% trypan blue (Sigma-Aldrich). The cells were then cultured in complete neurosphere medium containing EGF and bFGF. […] For each experiment there were 20 wells plated for each of the doses per treatment group. The plates were incubated at 37° C. in a humidified 5% CO2 incubator.

Where a name gives a salt, the structure may show the parent alone. Some results are limits rather than exact numbers.

Data on one compound can be found in patent US8790889B2, “Neuronal stimulation” (The University of Queensland, priority 2009, dated 2014).

For the compound `NC[C@H](O)c1ccc(O)c(O)c1` [norepinephrine, L-(−)-noradrenaline (+)-bitartrate salt monohydrate], the “very large neurospheres (>200 μm in diameter)” value in the assay with Hes5-GFP-positive cells (10 μM, GFP-positive population) is on record as 7.3±0.8 neurospheres per hippocampus. The “increase in neurosphere numbers” value in the assay on Hes5-GFP-positive cells (Hes5-GFP-positive cells plated at clonal density) was found to be 215.4±23.5%. Moreover, the “number of neurospheres from purified Hes5-GFP-positive precursor population” value with Hes5-GFP-positive cells (n=2 experiments, SR59230A 10 nM) was determined as 45.5±2.5 neurospheres. Also, in assay [1] (100 nM and 1 μM), the “neurosphere numbers compared to the control” value is “significant increase”. For the same compound, the size of neurospheres entry in assay [1] (10 μM) is “larger than the control neurospheres”. In assay [1] (norepinephrine with or without SR59230A 10 nM), the “very large neurospheres generated” value turned out to be 12±2.08 neurospheres. The “neurons per stimulated large neurosphere” value in the assay with hippocampal neurospheres (all large neurospheres examined, n=9) was over 50 neurons. Besides, the “neurospheres containing MBP-positive oligodendrocytes” value with hippocampal neurospheres (stimulated neurospheres) is “One third”. The “neurospheres containing βIII tubulin-positive neurons” value in the assay on hippocampal neurospheres (stimulated neurospheres examined) is 62 out of 82. For the same compound, the “proportion of stimulated large neurospheres (>200 μm) that could be passaged over 10 times” value in assay [2] is reported as 71.4%. For the same compound, the “increase in neurosphere frequency / precursor activity” value in the assay with hippocampal precursors worked out at 3.5 fold.
